According to ChEMBL document CHEMBL3352655, “Synthesis and biological evaluation of norcantharidin derivatives as protein phosphatase-1 inhibitors” (Bioorg Med Chem Lett, 2015):
Calls of active or inactive are those of the source. The calls are words filed in the database; no cut-off is given here.

What was measured:
HeLa [1] = test: Cytotoxicity against human HeLa cells after 48 hrs by MTT assay; assay type: functional, cell-based
HepG2 = test: Cytotoxicity against human HepG2 cells after 48 hrs by MTT assay; assay type: functional, cell-based; details: HepG2, 48 h
[2] = Cytotoxicity against human HCT8 cells after 48 hrs by MTT assay; assay type: functional, cell-based; details: HCT-8, 48 h
A549 = test: Cytotoxicity against human A549 cells after 48 hrs by MTT assay; assay type: functional, cell-based; details: A549, 48 h
[3] = Cytotoxicity against human WI38 cells after 48 hrs by MTT assay; assay type: cell-based; details: WI-38, 48 h
[4] = Partition coefficient, log P of the compound; assay type: physicochemical; details: octanol/water
[5] = (§1) Inhibition of protein phosphatase-1 (unknown origin) using phosphopeptide (Lys-Arg-pThr-Ile-Arg) substrate incubated for 60 mins by colorimetric analysis based serine/threonine assay; set-up: species or system Homo sapiens
Calf thymus DNA = test: Binding affinity to calf thymus DNA assessed as reduction in fluorescence intensity of compound-DNA complex at 1 uM by fluorescence spectroscopy; assay type: nucleic-acid assay; details: Bos taurus
HeLa [6] = test: Induction of cell shrinkage in human HeLa cells at 5 uM after 24 hrs by DAPI staining based immunofluorescence assay; assay type: functional
HeLa [7] = test: Induction of nuclear condensation in human HeLa cells at 5 uM after 24 hrs by DAPI staining based immunofluorescence assay; assay type: functional, cell-based
HeLa [8] = test: Induction of nuclear fragmentation in human HeLa cells at 5 uM after 24 hrs by DAPI staining based immunofluorescence assay; assay type: functional, cell-based
Homo sapiens = organism: Homo sapiens; test: as §1
HeLa [9] = test: Inhibition of microtubule formation in human HeLa cells at 5 uM after 24 hrs by DAPI staining based immunofluorescence assay; assay type: functional, cell-based

O=C1[C@@H]2[C@H](C(=O)N1c1ccc(S(=O)(=O)N3CCOCC3)cc1)[C@@H]1CC[C@H]2O1
IC50 (HeLa [1]): 16.3 µM | IC50 (HepG2): 28.7 µM | IC50 [2]: 43.5 µM | IC50 (A549): 39.2 µM | IC50 [3]: 52.1 µM | logP [4]: 0.9

O=C(Nc1ccc(S(=O)(=O)NC2CC2)cc1)C1C(C(=O)O)[C@H]2CC[C@@H]1O2 (stereo not given in full)
IC50 (HeLa [1]): 20.9 µM | IC50 (HepG2): 26.2 µM | IC50 [2]: 28.3 µM | IC50 (A549): 34.3 µM | IC50 [3]: 52.1 µM | logP [4]: 0.2

O=C(Nc1ccc(S(=O)(=O)NC2CCCCC2)cc1)C1C(C(=O)O)[C@H]2CC[C@@H]1O2 (stereo not given in full)
IC50 (HeLa [1]): 18.7 µM | IC50 (HepG2): 22.5 µM | IC50 [2]: 31 µM | IC50 (A549): 36.2 µM | IC50 [3]: 62.5 µM | logP [4]: 0.2

O=C1[C@@H]2[C@H](C(=O)N1c1ccc(S(=O)(=O)N3CCN(c4ccc(F)cc4)CC3)cc1)[C@@H]1CC[C@H]2O1
IC50 (HeLa [1]): 18.6 µM | IC50 (HepG2): 25.6 µM | IC50 [2]: 32.1 µM | IC50 (A549): 25.8 µM | IC50 [3]: 51.8 µM | logP [4]: 1.4 | IC50 [5]: 2300 nM

O=C1[C@@H]2[C@H](C(=O)N1c1ccc(S(=O)(=O)NC3CCCC3)cc1)[C@@H]1CC[C@H]2O1
IC50 (HeLa [1]): 20.7 µM | IC50 (HepG2): 23.5 µM | IC50 [2]: 32.8 µM | IC50 (A549): 32.5 µM | IC50 [3]: 40.3 µM | logP [4]: 1.1

O=C(Nc1ccc(S(=O)(=O)N2CCOCC2)cc1)C1C(C(=O)O)[C@H]2CC[C@@H]1O2 (stereo not given in full)
IC50 (HeLa [1]): 17.2 µM | IC50 (HepG2): 19.3 µM | IC50 [2]: 31.3 µM | IC50 (A549): 24.2 µM | IC50 [3]: 48.8 µM | logP [4]: 0.4

O=C(Nc1ccc(S(=O)(=O)NC2CCCC2)cc1)C1C(C(=O)O)[C@H]2CC[C@@H]1O2 (stereo not given in full)
IC50 (HeLa [1]): 17.6 µM | IC50 (HepG2): 22.3 µM | IC50 [2]: 30.2 µM | IC50 (A549): 20.1 µM | IC50 [3]: 59 µM | logP [4]: 0.2

O=C1OC(=O)C2C3CCC(O3)C12 (stereo not given) [DEMETHYL-CANTHARIDIN]
IC50 (HeLa [1]): 12.4 µM | IC50 (HepG2): 24.7 µM | IC50 [2]: 28.4 µM | IC50 (A549): 12.1 µM | IC50 [3]: 26.7 µM | logP [4]: 0.7 | IC50 [5]: 2600 nM

CCN1CCN(S(=O)(=O)c2ccc(NC(=O)C3C(C(=O)O)[C@H]4CC[C@@H]3O4)cc2)CC1 (stereo not given in full)
IC50 (HeLa [1]): 15.7 µM | IC50 (HepG2): 20.2 µM | IC50 [2]: 27.4 µM | IC50 (A549): 28.4 µM | IC50 [3]: 73.1 µM | logP [4]: 0.4

O=C(Nc1ccc(S(=O)(=O)N2CCN(c3ccc(F)cc3)CC2)cc1)C1C(C(=O)O)[C@H]2CC[C@@H]1O2 (single isomer, unassigned)
IC50 (HeLa [1]): 6.3 µM | IC50 (HepG2): 14.4 µM | Activity (Calf thymus DNA): Active | Activity (HeLa [6]): Active | Activity (HeLa [7]): Active | Activity (HeLa [8]): Active | IC50 [2]: 16.6 µM | IC50 (A549): 18.4 µM | IC50 [3]: 50.2 µM | logP [4]: 0.6 | inhibition (Homo sapiens): Dose-dependent effect | IC50 [5]: 200 nM | inhibition (HeLa [9]): Active

CCOC(=O)Cc1csc(NC(=O)C2C(C(=O)O)[C@H]3CC[C@@H]2O3)n1 (stereo not given in full)
IC50 (HeLa [1]): > 100 µM | IC50 (HepG2): > 100 µM | IC50 [2]: > 100 µM | IC50 (A549): > 100 µM | IC50 [3]: > 100 µM | logP [4]: 0.8
